The experiment addresses T1, MAP2K3 (MEK3) (Homo sapiens, UniProt P46734).
T1 construct: purchased Thermo Fisher Scientific (Life Technologies) SelectScreen
Kind of experiment: SelectScreen LanthaScreen. Format: binding. The note with it: read-out: % displacement. The gist of the method:
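Percent values come from Thermo SelectScreen profiling of NU5455, combining activity and binding assays. CSF1R was run in Z'LYTE format at Km app ATP, and CAMK1 in Adapta format with ATP listed at 10.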

T1 sequence (P46734 whole entry): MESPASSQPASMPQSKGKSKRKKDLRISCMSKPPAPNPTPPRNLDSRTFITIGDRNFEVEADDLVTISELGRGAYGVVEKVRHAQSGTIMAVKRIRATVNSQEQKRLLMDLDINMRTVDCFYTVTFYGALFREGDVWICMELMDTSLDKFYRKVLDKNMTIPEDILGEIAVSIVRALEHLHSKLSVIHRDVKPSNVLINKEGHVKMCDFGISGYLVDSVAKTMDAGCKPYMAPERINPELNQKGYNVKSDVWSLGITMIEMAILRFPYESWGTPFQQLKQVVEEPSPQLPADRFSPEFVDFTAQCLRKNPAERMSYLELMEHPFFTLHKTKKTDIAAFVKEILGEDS

On to `CN(C(=O)CN1CCOCC1)c1ccc2sc3c(-c4cccc5c(=O)cc(N6CC7CCC(C6)O7)oc45)cccc3c2c1` [NU5455], for which the inhibition at 1 µM was determined as 1.6%.

For the origin of these results see article PMC6934184, “Selective DNA-PKcs inhibition extends the therapeutic index of localized radiotherapy and chemotherapy” (The Journal of Clinical Investigation, 2019).
